# Laboratory results: ChEMBL document CHEMBL1201862, “PubChem BioAssay data set” (2004)
# The source made the active and inactive calls.
# What was measured:
# CAAX prenyl protease 2 = CAAX prenyl protease 2 (Homo sapiens, UniProt Q9Y256); assay: human Rce1 protease inhibitors, dose response, biochemical, yeast membranes, quenched-peptide fluorescence, cherry-pick (AID 588849)
# CAAX prenyl protease 1 = CAAX prenyl protease 1 (Saccharomyces cerevisiae S288c, UniProt P47154); assay: Ste24 protease inhibitors, dose response, biochemical, S. cerevisiae, plate reader, cherry-pick (AID 488815)
# Trypsin = Trypsin (Sus scrofa, UniProt P00761); assay: porcine trypsin inhibitors, dose response, selectivity assay for Rce1 protease inhibitor project, biochemical, quenched peptide fluorescence, cherry-pick (AID 488789)
# [1] = target: Serine/threonine-protein phosphatase (Homo sapiens, UniProt Q9BPW0); assay: PP5 phosphatase inhibitors, dose response, biochemical, fluorescence (AID 2395)
# [2] = target: Serine/threonine-protein phosphatase PP1-alpha catalytic subunit (Homo sapiens, UniProt P62136); assay: PP1 phosphatase inhibitors, dose response, biochemical, fluorescence (AID 2394)
# [3] = target: Lysine-specific demethylase 4C (Homo sapiens, UniProt Q9H3R0); assay: GASC-1 (JMJD2C) histone demethylase inhibitors, dose response, biochemical, DELFIA europium, cherry-picked samples (AID 488835); format: functional
# [4] = AlphaScreen signal interference compounds, dose response, artefact control for ARNT-TACC3 interaction inhibitor project, biochemical, luminescence, cherry-pick (AID 651705); format: functional;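 note: AlphaScreen bead proximity signal that flags compounds interfering with the detection technology; potency reflects signal decrease which marks the compound as an assay artifact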
# [5] = target: UDP-galactopyranose mutase (Mycobacterium tuberculosis, UniProt P9WIQ1); assay: Inhibitors of Mycobacterium tuberculosis UDP-galactopyranose mutase (UGM) enzyme Measured in Biochemical System Using Plate Reader - 2105-02_Inhibitor_Dose_CherryPick_Activity. [Related pubchem assays (depositor defined):AID504439]
# Beta-lactamase [6] = target: Beta-lactamase (Salmonella choleraesuis (strain SC-B67), UniProt Q5J463)
# ORF 73 = ORF 73 (Human herpesvirus 8, UniProt O40947); assay: inhibitors of C-LANA binding to LBS DNA, dose response, biochemical, fluorescence polarization, cherry-picked samples (AID 504725); parameters: species or system Human gammaherpesvirus 8;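 note: fluorescence polarization of a labeled DNA duplex reporting LANA DNA binding; potency is for inhibitors that block LANA binding to the DNA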
# Keap1/Nrf2 = Keap1/Nrf2 (Homo sapiens, UniProt Q14145); assay: Keap1-Nrf2 protein-protein interaction inhibitors, dose response, biochemical, fluorescence polarization, cherry-picked samples (AID 588683)
# Beta-lactamase [7] = target: Beta-lactamase (Pseudomonas aeruginosa, UniProt Q79MP6);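 note: biochemical dose-response test of metallo-beta-lactamase enzyme inhibition, read out by epi-absorbance; purified recombinant IMP-1 metallo-beta-lactamase with nitrocefin as substrate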
# Genome polyprotein = Genome polyprotein (dengue virus type 2, UniProt P29990); assay: Dengue-2 NS5 methyltransferase inhibitors, primary screen, biochemical, confirmation dose response (AID 588689); format: functional
# [8] = target: Transitional endoplasmic reticulum ATPase (Homo sapiens, UniProt P55072, C522A); assay: C522A mutant p97 ATPase inhibitors, dose response, counter-screen for p97 inhibitor project, biochemical, luminescence (AID 1544)
# [9] = target: Transitional endoplasmic reticulum ATPase (Homo sapiens, UniProt P55072); assay: p97 ATPase inhibitors, dose response, biochemical (AID 1534)
# Aminopeptidase N = target: T1, Aminopeptidase N (Plasmodium falciparum FcB1/Columbia, UniProt O96935); assay: P. falciparum M1AAP inhibitors, biochemical, fluorogenic H-Leu-NHMec substrate, 1536-well (AID 1445); parameters: species or system Plasmodium falciparum 3D7, 3D7
# T1 sequence (O96935 whole entry): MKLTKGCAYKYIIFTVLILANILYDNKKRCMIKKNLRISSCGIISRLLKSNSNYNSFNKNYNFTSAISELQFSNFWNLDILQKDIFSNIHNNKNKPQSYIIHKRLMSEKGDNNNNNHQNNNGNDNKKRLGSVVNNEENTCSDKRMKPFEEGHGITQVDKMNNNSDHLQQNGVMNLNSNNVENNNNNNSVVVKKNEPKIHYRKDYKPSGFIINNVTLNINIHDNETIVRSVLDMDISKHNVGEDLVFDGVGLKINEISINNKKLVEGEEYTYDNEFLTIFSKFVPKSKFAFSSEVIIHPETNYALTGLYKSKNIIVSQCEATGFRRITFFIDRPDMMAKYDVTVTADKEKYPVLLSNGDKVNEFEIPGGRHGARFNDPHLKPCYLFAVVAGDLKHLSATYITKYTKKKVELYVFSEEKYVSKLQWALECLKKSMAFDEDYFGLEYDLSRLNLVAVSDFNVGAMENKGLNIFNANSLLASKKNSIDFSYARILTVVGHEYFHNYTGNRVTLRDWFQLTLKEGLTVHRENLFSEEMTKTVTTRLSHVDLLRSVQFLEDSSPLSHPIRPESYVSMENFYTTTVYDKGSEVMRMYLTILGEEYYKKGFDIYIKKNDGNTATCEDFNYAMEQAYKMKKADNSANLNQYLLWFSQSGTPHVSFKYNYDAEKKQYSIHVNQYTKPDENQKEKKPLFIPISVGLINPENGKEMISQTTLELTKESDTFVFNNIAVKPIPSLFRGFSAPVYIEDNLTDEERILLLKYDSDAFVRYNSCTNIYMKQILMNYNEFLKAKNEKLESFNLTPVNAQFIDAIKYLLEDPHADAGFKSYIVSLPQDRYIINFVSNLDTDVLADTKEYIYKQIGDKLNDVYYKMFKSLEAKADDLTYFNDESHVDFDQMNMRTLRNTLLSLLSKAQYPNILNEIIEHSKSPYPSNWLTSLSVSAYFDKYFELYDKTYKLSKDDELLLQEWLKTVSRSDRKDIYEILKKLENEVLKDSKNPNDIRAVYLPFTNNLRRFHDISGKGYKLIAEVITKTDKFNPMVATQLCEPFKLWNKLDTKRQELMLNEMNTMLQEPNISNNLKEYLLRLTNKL
# SUMO-activating enzyme [10] = target: T2, SUMO-activating enzyme (Homo sapiens, UniProt Q9UBT2); assay: SUMOylation inhibitor hit validation, confirmation, SUMOylation inhibitor project, biochemical, AlphaScreen (AID 2018); format: functional
# SUMO E1/E2 = SUMO E1/E2 (Homo sapiens, UniProt P63279+Q9UBE0+Q9UBT2); assay: SAR analysis of SUMOylation using HTRF in an in-Vitro dose response assay. [Related pubchem assays (depositor defined):AID2006, AID2011, AID2018, AID2069, AID2658]; format: functional
# SUMO-activating enzyme [11] = target: T2, SUMO-activating enzyme; assay: inhibitors of in vitro SUMOylation cascade, primary screen, biochemical, HTRF, uHTS (AID 2006); format: protein-complex assay
# [12] = target: T3, Histone-lysine N-methyltransferase NSD2 (Homo sapiens, UniProt O96028); format: biochemical
# T3 sequence (O96028 whole entry): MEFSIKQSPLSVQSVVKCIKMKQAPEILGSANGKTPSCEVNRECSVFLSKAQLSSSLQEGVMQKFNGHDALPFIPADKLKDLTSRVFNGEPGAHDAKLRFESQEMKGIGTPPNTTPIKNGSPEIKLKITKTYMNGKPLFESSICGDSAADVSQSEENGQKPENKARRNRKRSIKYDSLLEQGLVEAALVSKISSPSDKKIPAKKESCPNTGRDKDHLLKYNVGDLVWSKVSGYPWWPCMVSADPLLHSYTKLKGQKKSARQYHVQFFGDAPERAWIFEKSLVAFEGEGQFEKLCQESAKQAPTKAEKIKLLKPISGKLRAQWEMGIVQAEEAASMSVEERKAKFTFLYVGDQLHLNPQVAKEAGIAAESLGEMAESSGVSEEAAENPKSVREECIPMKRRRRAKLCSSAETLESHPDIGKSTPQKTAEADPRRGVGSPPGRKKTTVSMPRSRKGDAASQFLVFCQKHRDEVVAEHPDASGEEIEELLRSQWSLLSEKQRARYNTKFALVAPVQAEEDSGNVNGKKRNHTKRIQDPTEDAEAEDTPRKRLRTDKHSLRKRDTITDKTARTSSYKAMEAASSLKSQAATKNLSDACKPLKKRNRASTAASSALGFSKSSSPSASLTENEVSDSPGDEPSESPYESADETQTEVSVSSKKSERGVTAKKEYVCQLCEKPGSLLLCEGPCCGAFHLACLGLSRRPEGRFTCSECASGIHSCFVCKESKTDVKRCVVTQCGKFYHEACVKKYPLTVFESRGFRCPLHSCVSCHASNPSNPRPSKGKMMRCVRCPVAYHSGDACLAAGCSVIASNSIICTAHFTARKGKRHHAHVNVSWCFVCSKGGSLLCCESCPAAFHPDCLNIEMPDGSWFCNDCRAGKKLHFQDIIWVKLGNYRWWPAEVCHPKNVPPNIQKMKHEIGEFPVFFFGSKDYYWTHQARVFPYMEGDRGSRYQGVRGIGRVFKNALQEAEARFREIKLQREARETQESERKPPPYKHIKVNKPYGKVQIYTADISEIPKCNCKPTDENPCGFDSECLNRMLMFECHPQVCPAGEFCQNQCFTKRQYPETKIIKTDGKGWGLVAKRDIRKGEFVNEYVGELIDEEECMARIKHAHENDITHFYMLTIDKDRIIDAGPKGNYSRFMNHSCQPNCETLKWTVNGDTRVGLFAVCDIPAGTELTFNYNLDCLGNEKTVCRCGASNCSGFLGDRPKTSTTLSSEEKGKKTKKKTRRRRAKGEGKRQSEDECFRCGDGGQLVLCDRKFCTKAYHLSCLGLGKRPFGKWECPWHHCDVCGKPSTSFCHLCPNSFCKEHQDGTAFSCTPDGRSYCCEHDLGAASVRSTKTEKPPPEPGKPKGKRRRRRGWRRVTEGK
# [13] = target: T4, Voltage-gated N-type calcium channel alpha-1B subunit/Amyloid beta A4 precursor protein-binding family A member 1 (Homo sapiens, UniProt Q00975+Q02410); format: protein assay
# [14] = target: DNA (cytosine-5)-methyltransferase 1 (Homo sapiens, UniProt P26358); assay: DNMT1 methyltransferase inhibitors, confirmation, biochemical, fluorescent molecular beacon (AID 602386); format: functional
# [15] = target: Induced myeloid leukemia cell differentiation protein Mcl-1 (Homo sapiens, UniProt Q07820); format: functional
# Caspase-6 = target: T5, Caspase-6 (Homo sapiens, UniProt P55212); assay: human caspase-6 inhibitors, dose response, biochemical, VEID-R110 fluorescence, cherry-pick (AID 720632)
# T5 sequence (P55212 whole entry): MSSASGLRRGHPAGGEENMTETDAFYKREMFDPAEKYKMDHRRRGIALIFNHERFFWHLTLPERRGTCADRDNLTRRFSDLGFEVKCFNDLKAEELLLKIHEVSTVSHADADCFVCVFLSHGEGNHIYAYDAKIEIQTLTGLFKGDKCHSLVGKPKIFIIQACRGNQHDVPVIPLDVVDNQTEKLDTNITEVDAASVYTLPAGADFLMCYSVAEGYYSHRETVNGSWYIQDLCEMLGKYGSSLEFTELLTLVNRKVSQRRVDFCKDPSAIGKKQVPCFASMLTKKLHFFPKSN
# [16] = target: T4, Voltage-gated N-type calcium channel alpha-1B subunit/Amyloid beta A4 precursor protein-binding family A member 1; format: protein assay; remark: listed apart in the source
# [17] = SFLLRN-induced P-Selectin Platelet Surface Expression Measured in Cell-Based System Using Flow Cytometry - 2016-03_Inhibitor_Dose_DryPowder_Activity_Set3. [Related pubchem assays (depositor defined):AID1678]; format: functional
# [18] = Luminescence Cell-Based Dose Response Follow up to Identify Inhibitors of Platelet Dense Granule Release. [Related pubchem assays (depositor defined):AID1663, AID1678, AID1889, AID2519]; format: functional
# [19] = target: T6, Mannose-6-phosphate isomerase (Homo sapiens, UniProt P34949); assay: PMI enzyme inhibitors, confirmation, biochemical, fluorescence intensity (AID 1535)
# T6 sequence (P34949 whole entry): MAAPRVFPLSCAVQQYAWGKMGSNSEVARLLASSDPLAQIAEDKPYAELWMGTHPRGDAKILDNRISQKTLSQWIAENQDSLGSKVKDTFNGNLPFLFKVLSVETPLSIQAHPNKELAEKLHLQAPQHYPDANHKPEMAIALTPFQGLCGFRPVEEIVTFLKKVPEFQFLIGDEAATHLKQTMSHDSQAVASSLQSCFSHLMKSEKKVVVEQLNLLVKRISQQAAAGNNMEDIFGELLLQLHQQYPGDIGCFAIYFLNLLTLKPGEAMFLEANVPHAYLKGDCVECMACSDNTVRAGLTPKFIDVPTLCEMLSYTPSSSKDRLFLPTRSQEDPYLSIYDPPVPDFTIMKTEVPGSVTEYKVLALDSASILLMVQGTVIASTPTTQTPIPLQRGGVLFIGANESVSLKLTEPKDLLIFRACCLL
# [20] = growth induction of Burl-1 ts yeast mutant, dose response, counter-screen for SUMOylation pathway inhibitor project, whole organism, S. cerevisiae, luminescence (AID 463199); format: functional
# [21] = inhibitors of Trypanosoma cruzi host-cell infection, confirmation, beta-gal luminescence, NIH3T3 host cells (AID 2630); format: functional, cell-based; settings: Mus musculus
# Chain of ORF 73 (O40947 whole entry): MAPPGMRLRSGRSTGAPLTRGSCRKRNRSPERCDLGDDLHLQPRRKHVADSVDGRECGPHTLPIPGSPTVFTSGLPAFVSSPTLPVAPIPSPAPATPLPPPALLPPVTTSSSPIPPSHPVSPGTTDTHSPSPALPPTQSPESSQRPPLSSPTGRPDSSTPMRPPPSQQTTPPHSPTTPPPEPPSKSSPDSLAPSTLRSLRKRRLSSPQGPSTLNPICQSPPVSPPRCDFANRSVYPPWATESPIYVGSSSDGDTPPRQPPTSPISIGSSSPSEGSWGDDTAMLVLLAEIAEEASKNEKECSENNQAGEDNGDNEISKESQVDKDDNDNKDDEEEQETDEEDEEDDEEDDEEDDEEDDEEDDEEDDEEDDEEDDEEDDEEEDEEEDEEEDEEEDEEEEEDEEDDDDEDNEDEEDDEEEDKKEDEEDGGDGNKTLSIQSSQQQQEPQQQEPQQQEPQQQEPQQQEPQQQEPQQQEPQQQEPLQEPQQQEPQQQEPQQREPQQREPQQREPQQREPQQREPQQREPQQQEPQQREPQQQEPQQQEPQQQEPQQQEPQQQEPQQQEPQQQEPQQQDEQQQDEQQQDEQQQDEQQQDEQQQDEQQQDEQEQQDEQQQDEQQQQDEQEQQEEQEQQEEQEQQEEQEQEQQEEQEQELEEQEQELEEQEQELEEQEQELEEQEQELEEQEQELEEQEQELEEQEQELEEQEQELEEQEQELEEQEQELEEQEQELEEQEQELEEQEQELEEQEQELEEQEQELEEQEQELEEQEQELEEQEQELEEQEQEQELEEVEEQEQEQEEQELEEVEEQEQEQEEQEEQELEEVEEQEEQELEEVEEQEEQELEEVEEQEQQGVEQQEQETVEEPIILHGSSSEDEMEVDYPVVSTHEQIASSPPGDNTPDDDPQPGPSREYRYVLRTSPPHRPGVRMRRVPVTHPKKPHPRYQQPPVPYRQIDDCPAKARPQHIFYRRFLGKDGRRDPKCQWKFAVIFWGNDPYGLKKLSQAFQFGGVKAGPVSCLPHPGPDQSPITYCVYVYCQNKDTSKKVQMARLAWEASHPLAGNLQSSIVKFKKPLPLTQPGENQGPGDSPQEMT
# T4 sequence (Q00975 whole entry): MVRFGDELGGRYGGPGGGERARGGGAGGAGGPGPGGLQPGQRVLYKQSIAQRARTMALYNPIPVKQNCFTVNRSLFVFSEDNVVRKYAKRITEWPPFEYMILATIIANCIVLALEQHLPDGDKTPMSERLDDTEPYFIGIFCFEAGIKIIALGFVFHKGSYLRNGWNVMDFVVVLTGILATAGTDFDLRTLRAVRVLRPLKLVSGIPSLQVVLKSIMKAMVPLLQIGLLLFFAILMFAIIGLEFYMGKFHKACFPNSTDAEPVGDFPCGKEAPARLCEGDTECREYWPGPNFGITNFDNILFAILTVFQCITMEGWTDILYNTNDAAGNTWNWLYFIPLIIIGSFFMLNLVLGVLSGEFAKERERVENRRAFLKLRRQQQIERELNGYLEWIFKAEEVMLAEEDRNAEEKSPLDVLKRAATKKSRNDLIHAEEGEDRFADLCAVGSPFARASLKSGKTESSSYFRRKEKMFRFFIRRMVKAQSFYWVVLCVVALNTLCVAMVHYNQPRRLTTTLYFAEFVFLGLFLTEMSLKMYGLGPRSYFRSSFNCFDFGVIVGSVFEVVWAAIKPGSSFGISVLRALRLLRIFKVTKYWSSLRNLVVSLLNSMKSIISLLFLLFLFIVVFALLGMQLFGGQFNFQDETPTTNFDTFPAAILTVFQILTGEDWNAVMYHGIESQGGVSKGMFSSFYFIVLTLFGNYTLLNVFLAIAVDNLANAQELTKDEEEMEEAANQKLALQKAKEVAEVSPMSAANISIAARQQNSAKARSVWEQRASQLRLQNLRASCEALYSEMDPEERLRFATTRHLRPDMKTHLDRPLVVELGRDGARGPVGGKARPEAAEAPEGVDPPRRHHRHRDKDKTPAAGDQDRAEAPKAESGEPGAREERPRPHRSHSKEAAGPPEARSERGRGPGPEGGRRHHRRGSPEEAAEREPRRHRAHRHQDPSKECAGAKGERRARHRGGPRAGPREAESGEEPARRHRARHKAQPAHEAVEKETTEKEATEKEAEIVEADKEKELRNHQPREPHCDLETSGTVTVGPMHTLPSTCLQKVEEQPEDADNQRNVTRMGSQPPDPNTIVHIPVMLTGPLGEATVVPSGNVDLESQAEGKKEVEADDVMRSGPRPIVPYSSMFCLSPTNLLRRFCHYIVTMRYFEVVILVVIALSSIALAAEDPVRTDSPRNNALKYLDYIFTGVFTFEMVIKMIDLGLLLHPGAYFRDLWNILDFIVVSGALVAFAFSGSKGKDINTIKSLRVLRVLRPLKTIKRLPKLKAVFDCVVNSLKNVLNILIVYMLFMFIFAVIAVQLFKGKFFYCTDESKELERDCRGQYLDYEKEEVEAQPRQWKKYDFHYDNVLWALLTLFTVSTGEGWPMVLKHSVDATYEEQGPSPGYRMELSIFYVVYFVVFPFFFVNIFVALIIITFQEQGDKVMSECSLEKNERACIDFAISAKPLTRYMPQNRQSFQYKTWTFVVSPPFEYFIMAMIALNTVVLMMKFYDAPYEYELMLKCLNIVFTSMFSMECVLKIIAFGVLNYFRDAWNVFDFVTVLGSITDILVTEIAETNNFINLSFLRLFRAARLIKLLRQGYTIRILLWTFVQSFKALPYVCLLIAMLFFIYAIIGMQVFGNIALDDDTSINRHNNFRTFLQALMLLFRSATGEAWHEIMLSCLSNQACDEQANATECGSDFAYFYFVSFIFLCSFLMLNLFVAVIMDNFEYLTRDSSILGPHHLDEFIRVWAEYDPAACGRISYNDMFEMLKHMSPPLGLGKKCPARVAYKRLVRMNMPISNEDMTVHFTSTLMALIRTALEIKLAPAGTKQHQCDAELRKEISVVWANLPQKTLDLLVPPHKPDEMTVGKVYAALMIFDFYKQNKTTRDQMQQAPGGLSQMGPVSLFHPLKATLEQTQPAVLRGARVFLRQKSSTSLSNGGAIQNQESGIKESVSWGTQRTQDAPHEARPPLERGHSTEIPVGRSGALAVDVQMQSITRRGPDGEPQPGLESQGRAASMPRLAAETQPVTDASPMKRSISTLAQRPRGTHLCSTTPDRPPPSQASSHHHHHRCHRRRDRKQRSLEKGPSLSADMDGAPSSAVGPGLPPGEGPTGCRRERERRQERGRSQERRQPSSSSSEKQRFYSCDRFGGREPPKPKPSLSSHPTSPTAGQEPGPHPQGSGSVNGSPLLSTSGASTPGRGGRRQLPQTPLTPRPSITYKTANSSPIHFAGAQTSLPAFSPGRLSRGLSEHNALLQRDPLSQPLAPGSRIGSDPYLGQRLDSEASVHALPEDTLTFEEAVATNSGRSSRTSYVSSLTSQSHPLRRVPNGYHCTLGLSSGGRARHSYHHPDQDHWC
# T4 sequence (Q02410 whole entry): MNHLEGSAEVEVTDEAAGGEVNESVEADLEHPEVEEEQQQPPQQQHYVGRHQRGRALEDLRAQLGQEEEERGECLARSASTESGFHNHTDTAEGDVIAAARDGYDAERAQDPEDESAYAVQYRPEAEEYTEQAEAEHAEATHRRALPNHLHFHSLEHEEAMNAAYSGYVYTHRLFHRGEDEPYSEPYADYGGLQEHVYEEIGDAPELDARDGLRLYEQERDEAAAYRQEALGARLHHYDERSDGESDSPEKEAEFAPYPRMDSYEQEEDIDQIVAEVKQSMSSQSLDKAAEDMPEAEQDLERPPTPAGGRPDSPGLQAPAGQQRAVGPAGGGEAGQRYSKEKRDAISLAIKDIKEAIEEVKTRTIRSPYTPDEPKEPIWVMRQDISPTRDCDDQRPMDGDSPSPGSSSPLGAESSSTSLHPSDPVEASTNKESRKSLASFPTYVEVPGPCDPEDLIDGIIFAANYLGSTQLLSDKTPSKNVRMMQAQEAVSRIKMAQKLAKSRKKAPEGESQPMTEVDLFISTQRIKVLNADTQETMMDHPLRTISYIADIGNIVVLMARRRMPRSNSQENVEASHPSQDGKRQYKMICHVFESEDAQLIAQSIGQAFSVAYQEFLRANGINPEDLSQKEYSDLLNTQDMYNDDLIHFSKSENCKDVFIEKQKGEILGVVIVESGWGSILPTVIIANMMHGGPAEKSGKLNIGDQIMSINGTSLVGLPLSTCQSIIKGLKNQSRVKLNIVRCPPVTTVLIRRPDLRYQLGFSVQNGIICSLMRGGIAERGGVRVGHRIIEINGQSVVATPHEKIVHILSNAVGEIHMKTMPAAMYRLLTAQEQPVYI
# Chain of Serine/threonine-protein phosphatase (Q9BPW0 whole entry): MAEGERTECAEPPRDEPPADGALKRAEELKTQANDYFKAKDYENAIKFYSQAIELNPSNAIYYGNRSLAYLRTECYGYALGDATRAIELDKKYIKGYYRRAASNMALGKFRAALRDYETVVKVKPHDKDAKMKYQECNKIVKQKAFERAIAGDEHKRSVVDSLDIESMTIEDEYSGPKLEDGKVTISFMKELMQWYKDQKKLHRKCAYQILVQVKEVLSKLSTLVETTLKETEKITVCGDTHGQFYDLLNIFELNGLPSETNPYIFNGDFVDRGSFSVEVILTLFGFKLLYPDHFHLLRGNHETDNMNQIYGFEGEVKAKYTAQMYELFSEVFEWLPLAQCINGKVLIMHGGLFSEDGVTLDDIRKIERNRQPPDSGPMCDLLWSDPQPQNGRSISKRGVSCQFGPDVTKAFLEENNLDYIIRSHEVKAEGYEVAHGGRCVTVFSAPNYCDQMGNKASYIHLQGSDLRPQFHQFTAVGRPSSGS
# Chain of Beta-lactamase (Pseudomonas aeruginosa, UniProt Q79MP6) (Q79MP6 whole entry): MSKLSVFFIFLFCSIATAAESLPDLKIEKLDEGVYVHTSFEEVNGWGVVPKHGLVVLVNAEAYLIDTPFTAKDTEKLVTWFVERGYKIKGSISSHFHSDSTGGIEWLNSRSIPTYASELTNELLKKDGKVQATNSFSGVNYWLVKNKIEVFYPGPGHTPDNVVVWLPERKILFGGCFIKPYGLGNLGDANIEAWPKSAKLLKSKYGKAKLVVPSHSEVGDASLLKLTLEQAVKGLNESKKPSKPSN
smiles,measurement,setting,value
COc1ccc(-n2c(N)c(C(=O)NCc3ccco3)c3nc4ccccc4nc32)c(OC)c1,AC50,CAAX prenyl protease 2,2.3 µM (active)
same,AC50,CAAX prenyl protease 1,5.18 µM (active)
same,AC50,Trypsin,2.87 µM (active)
O=[N+]([O-])c1ccc(O)c(-c2nn[nH]n2)c1,IC50,[1],44.5 µM (not active)
same,IC50,[2],> 67 µM (not active)
same,AC50,[3],4.74 µM (active)
same,AC50,[4],121 µM (active)
Nc1cccc(N2C(=O)c3cccc4c(N)ccc(c34)C2=O)c1,AC50,[5],3.13 µM (active)
same,IC50,Beta-lactamase [6],16.8 µM (inactive)
same,AC50,ORF 73,6.98 µM (active)
same,AC50,Keap1/Nrf2,4.29 µM (active)
same,IC50,Beta-lactamase [7],31 µM (inactive)
O=C(O)c1ccc(NS(=O)(=O)c2ccc3c(c2)C2C=CCC2C(c2ccccc2F)N3)cc1 (stereo unspecified),IC50,Genome polyprotein,62.3 µM (active)
same,IC50,[8],> 50 µM (not active)
same,IC50,[9],19 µM (not active)
same,IC50,Aminopeptidase N,2.75 µM (active)
same,IC50,SUMO-activating enzyme [10],4.63 µM (active)
same,AC50,ORF 73,109 µM (active)
same,IC50,SUMO E1/E2,35.3 µM (active)
same,IC50,SUMO-activating enzyme [11],19.5 µM (active)
same,AC50,[12],10.2 µM (active)
same,IC50,[13],> 50 µM (inactive)
same,IC50,[14],10.1 µM (active)
same,IC50,[15],2.58 µM (active)
same,AC50,Caspase-6,13.7 µM (active)
same,IC50,[16],> 56.8 µM (not active)
CC(=O)Nc1cccc(NC(=O)c2ccccc2Cl)c1,AC50,[17],53.9 µM (active)
same,EC50,[18],147 µM (active)
O=c1c2ccccc2[nH]n1-c1ccccc1,IC50,[19],44.9 µM (active)
CSc1ccc(Cl)c(C(=O)Nc2ccc(N3CCOCC3)cc2)c1,AC50,[20],57.3 µM (active)
Cn1cc(CN2CCCC(C(=O)c3ccc(C(C)(C)C)cc3)C2)cn1 (stereo unspecified),EC50,[21],1.25 µM (active)
